Data as given in ChEMBL document CHEMBL1201862, “PubChem BioAssay data set” (2004).
Activity calls are given as the source filed them.

Columns and labels:
[1] = target: Cytochrome P450 2D6 (Homo sapiens, UniProt P10635)
[2] = target: Cytochrome P450 2C9 (Homo sapiens, UniProt P11712)
[3] = test system: H9c2; assay: cells; format: functional, cell-based; details: Rattus norvegicus, H9c2, Myocardium;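 also: confirmatory concentration-response retest of ultra-high-throughput screening hits for modulation of myocardial damage; cell death induced by hydrogen peroxide oxidative stress; compound pretreatment for 60 min then peroxide exposure for 2 h; potency is for protecting the cells against peroxide damage rather than for killing them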
[4] = microbe, parasite or virus in culture; format: functional; details: Mycobacterium tuberculosis
[5] = Luminescence Cell-Based Dose Retest to Confirm Inhibitors of Cancer Stem Cells. [Related pubchem assays (depositor defined):AID2717, AID2721]; format: functional; details: Homo sapiens
[6] = target: Cytochrome P450 2C19 (Homo sapiens, UniProt P33261); assay: Cytochrome panel assay with activity outcomes. Panel member name: p450-cyp2c19 Compounds with AC50 equal or less than 10 uM are considered active; format: functional; details: read-out: AC50
[7] = target: Paired box protein Pax-8 (Homo sapiens, UniProt Q06710); assay: inhibitors of PAX8-driven TPO luciferase reporter, dose response, RMG-I cells, cherry-pick (AID 687027); format: functional, cell-based;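 also: luciferase reporter driven by Pax8 target thyroperoxidase promoter measured by SteadyGlo luminescence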
[8] = Luminescence Cell-Based Dose Response HTS to Identify Activators of Luciferase Translation or Activity in H4 […] Cells. [Related pubchem assays: 1829 (Project Summary), 1814 (Primary HTS)]; format: functional
[9] = test system: H4; assay: Luminescence Cell-Based Dose Response HTS to Identify Activators of 5'UTR Stem-Loop Driven Prion Protein mRNA Translation in H4 Neuroglioblastoma Cells. [Related pubchem assays: 1829 (Project Summary), 1814 (Primary HTS)]; format: functional; details: Homo sapiens
[10] = target: Cytochrome P450 3A4 (Homo sapiens, UniProt P08684);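 also: CYP3A4 tested as one member of a cytochrome P450 panel screen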
[11] = cells; format: functional, cell-based
[12] = cells; format: functional, cell-based; remark: listed apart in the source
[13] = target: T1, Cytochrome P450 1A2 (Homo sapiens, UniProt P05177);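 also: PubChem cytochrome P450 panel assay, CYP1A2 panel member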
T1 sequence (P05177 whole entry): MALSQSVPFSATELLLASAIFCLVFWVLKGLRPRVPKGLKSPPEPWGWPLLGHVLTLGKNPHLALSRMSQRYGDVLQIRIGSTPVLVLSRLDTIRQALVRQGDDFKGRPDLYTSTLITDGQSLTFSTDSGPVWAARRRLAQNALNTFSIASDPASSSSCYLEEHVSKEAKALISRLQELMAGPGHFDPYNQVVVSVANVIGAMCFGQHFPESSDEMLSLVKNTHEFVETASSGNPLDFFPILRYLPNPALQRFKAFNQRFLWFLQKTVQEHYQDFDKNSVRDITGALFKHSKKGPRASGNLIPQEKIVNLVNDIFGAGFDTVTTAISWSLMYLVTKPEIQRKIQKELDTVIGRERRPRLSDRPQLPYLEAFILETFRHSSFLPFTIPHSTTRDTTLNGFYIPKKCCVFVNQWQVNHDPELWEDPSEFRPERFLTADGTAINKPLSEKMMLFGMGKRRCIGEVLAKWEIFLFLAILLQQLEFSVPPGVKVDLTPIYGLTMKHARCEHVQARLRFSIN

[14] = growth suppression of PTEN-null colon cells, dose response, cell-based, HCT116 PTEN knockout (AID 1047); format: functional;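 also: HCT116 colon tumor cells with PTEN knocked out; cells exposed to compound for 60 hours before readout; potency for loss of cell viability measured by luminescence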
[15] = growth suppression of beta-catenin-knockout colon cells, dose response, cell-based, HCT116, human colon tumor (AID 1045); format: functional;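 also: HCT116 colon tumor cells with beta catenin knocked out; cells exposed to compound for 60 hours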
[16] = Luminescence Cell-Based Dose Response HTS to Identify Inhibitors of 5'UTR Stem-Loop Driven Prion Protein mRNA Translation in H4 Neuroglioblastoma Cells. [Related pubchem assays: 1827 (Project Summary), 1813 (Primary HTS)]; format: functional
[17] = inhibitors of firefly luciferase expression or activity, dose response, H4 neuroglioma cells, luminescence (AID 1990); format: functional, cell-based
[18] = inhibitors of SNCA 5'UTR-driven reporter translation, confirmation, H4 neuroglioma cells, luminescence (AID 1988); format: functional, cell-based
[19] = NIH-3T3 fibroblast cytotoxicity, dose response, cytotoxicity control, cell-based, fluorescence, Alamar Blue, secondary assay (AID 2327); format: functional;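 also: NIH-3T3 mouse fibroblasts cultured with fluconazole at 8 µg/mL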
[20] = C. albicans growth with fluconazole, confirmation, fluorescence, retest (AID 2467); format: functional, cell-based
[21] = test system: INS1; assay: beta cell apoptosis inhibitors, cytokine rescue, dose response, luminescence, retest (AID 449756); format: functional, cell-based; details: Rattus norvegicus;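 also: cell death triggered by IL-1 beta plus TNF-alpha plus IFN-gamma mixture; protective hits raise ATP signal compared with cytokine alone wells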

Cytochrome P450 3A4, sequence (P08684 whole entry): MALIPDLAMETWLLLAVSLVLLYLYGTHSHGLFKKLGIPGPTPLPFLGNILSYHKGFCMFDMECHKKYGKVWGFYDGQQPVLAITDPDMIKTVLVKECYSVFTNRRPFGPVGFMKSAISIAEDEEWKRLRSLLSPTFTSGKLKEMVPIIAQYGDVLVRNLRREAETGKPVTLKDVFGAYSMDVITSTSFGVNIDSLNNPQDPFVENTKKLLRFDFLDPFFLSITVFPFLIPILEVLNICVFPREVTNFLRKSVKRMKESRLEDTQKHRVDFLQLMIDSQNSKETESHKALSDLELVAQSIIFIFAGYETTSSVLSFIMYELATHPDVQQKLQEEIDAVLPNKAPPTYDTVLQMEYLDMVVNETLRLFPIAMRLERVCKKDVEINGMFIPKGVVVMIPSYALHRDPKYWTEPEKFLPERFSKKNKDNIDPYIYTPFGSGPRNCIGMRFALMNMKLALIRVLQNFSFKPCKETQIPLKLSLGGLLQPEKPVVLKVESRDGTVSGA
Cytochrome P450 2C9, sequence (P11712 whole entry): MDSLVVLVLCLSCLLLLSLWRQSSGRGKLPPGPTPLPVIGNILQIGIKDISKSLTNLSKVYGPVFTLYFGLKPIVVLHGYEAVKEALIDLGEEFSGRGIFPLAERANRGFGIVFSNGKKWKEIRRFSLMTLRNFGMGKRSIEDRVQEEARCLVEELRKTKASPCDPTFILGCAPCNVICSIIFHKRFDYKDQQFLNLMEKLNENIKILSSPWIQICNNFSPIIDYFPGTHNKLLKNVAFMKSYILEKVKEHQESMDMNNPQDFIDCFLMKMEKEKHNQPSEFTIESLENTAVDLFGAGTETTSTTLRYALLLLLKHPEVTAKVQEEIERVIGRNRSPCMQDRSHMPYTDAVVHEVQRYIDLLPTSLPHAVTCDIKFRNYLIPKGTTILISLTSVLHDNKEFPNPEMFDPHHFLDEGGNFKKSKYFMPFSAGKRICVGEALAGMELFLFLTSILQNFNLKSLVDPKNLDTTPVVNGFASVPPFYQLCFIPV
Paired box protein Pax-8, sequence (Q06710 whole entry): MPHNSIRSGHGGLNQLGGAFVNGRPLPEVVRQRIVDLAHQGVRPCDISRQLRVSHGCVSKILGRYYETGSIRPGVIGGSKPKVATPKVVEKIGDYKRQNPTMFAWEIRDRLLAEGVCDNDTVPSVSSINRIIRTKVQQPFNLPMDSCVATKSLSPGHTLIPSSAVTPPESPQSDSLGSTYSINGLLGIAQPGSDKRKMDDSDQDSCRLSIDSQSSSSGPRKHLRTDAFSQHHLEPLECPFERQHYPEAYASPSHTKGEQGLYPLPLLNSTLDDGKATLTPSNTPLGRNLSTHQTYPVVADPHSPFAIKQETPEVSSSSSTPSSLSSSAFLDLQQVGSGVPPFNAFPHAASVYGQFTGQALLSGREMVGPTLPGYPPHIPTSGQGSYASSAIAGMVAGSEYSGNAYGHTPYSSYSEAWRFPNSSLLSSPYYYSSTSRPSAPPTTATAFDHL
Cytochrome P450 2D6, sequence (P10635 whole entry): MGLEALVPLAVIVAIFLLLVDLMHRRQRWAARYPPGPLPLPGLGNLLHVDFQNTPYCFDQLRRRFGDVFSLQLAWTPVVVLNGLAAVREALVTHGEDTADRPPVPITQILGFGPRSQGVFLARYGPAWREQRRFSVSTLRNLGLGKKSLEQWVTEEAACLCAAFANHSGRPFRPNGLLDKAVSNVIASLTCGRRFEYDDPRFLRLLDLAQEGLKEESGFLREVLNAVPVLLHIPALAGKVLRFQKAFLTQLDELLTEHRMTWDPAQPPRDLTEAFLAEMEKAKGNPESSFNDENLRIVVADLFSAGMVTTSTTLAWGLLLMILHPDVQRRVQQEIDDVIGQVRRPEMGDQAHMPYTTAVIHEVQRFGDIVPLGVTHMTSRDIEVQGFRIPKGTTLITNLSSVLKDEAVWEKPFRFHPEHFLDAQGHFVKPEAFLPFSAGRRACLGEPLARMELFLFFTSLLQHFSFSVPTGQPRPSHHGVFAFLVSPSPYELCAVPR
Cytochrome P450 2C19, sequence (P33261 whole entry): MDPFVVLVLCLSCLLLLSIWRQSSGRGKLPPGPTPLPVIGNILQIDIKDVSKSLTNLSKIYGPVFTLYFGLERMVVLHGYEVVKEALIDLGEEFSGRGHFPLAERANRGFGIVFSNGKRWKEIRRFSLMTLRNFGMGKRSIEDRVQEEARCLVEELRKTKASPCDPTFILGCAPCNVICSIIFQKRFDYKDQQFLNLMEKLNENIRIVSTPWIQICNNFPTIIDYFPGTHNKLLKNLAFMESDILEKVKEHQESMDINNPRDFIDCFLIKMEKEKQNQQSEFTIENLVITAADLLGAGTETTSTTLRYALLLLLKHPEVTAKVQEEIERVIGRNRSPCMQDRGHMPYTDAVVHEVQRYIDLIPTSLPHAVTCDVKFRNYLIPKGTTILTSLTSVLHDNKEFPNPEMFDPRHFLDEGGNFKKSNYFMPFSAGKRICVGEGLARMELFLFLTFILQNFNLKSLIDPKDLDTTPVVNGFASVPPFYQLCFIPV

O=C(Oc1ccccc1)N1CCC2(CC1)CCN(c1ccncc1)CC2
AC50 [1]: 39.8 µM (inconclusive) | AC50 [2]: 20 µM (inconclusive)

CCN(C[C@H]1N[C@@](CC)(C(=O)OC)[C@H]2C(=O)N(Cc3ccccc3)C(=O)[C@@H]12)S(=O)(=O)c1ccc(F)cc1
IC50 [3]: 13.9 µM (active)

COc1ccc(COc2cc(-c3cccc(OC)c3)nc3ccc(NC(=O)c4cccnc4)cc23)cc1
IC50 [3]: > 79 µM (inactive)

CC(=O)c1cccc(-c2cnc3c(NC=O)cc(-c4ccc(F)cc4)cn23)c1
IC50 [3]: > 79 µM (inactive)

CC(C)n1cnc2c(NCc3ccccc3)cc(Cc3ccc(F)cc3)cc21
CC50 [4]: > 40 µM (active) | AC50 [5]: 1.78 µM (active)

CCN1CCN(c2nc3ccccc3nc2C(C#N)C(=O)OC2CCCCC2)CC1 (stereo not given)
AC50 [1]: 28.2 µM (inconclusive) | AC50 [6]: 39.8 µM (inconclusive) | AC50 [2]: 39.8 µM (inconclusive)

C[C@@H]1CN([C@H](C)CO)C(=O)c2cc(NC(=O)Nc3ccc(C(F)(F)F)cc3)ccc2O[C@@H](C)CCCCO[C@H]1CN(C)C(=O)Nc1ccc(F)cc1
AC50 [7]: 1.41 µM (active)

O=C(COC(=O)c1ccccc1[N+](=O)[O-])c1ccc2c(c1)OCO2
EC50 [8]: > 120 µM (not active) | EC50 [9]: 36 µM (active)

CCOCCCNS(=O)(=O)c1ccc(NC(=O)N2c3ccccc3Sc3ccccc32)cc1
CC50 [4]: 36.6 µM (active)

CSc1nc2ccccc2cc1/C=C(\C#N)c1cccc(C)c1
AC50 [10]: 25.1 µM (inconclusive) | AC50 [1]: 6.31 µM (inconclusive) | AC50 [2]: 31.6 µM (inconclusive)

Cc1ccc2c(c1)C1NC(S)=NC(C)(O2)C1C(=O)Nc1ccc(Cl)cc1 (stereo not given)
EC50 [11]: > 350 µM (not active) | EC50 [12]: > 350 µM (not active)

O=C(CCc1nnc(-c2ccccc2)o1)c1ccc(Cl)cc1
EC50 [11]: > 350 µM (not active)

CCn1c(C)cc(/C=C2\SC(=O)N(CC(=O)Nc3ccc(C)c(C)c3)C2=O)c1C
AC50 [13]: 8.91 µM (inconclusive) | AC50 [10]: 1 µM (inconclusive) | EC50 [14]: 210 µM (active) | EC50 [15]: 24.1 µM (active) | AC50 [2]: 1.58 µM (inconclusive)

CN1CCN(C2Cc3ccc(F)cc3Sc3cc(F)c(Cl)cc32)CC1 (stereo not given)
EC50 [16]: > 120 µM (not active) | EC50 [17]: > 120 µM (not active) | EC50 [18]: > 60 µM (not active) | AC50 [5]: 6.08 µM (active) | EC50 [11]: > 350 µM (not active) | EC50 [12]: 20.1 µM (active)

Cc1nnc(S)n1/N=C/c1cccc(OCc2ccccc2)c1
CC50 [4]: > 40 µM (active)

COC(=O)c1[nH]c2c(c1C)C(=O)CC(c1cc(OC)ccc1OC)C2 (stereo not given)
IC50 [3]: > 79 µM (inactive)

O=c1[nH]c(=O)n(Cc2ccccc2)c2nc(-c3ccc(Oc4ccc(F)cc4)c([N+](=O)[O-])c3)n(CCO)c12
CC50 [4]: 13.9 µM (active) | EC50 [14]: 7.51 µM (active) | EC50 [15]: 8.03 µM (active)

Cc1oc(-c2ccc(Cl)cc2)cc1/C(O)=C(C#N)/C=N/c1cccc(OC(F)(F)F)c1
EC50 [11]: > 350 µM (not active) | EC50 [12]: > 350 µM (not active)

CC(OC(=O)COc1ccc(Nc2ccccc2)cc1)C(=O)N(C)c1ccccc1 (stereo not given)
EC50 [11]: > 350 µM (not active) | EC50 [12]: 30.5 µM (active)

Cc1ccccc1NC(=O)COC(=O)CCc1nc(O)c2ccccc2n1
IC50 [3]: 10.1 µM (active)

COCc1nnc(NC(=O)c2ccc(S(=O)(=O)N3CCCCCC3)cc2)o1
EC50 [19]: > 160 µM (inactive)

CCOC(=O)c1c(NC(=O)CN2CCN(C(=O)c3ccco3)CC2)sc2c1CCCC2
EC50 [19]: > 150 µM (inactive) | EC50 [20]: > 38 µM (not active) | EC50 [14]: 35.1 µM (active) | EC50 [15]: 28.7 µM (active)

O=C(Nc1ccc(F)cc1)c1cnc(-c2ccccc2)nc1-c1ccccc1
EC50 [14]: 10 µM (active) | EC50 [15]: 9.24 µM (active)

COc1nc(N/N=C/c2cc3c(cc2Br)OCO3)nc(N2CCOCC2)n1
IC50 [3]: > 79 µM (inactive)

c1ccc(CSc2nnc(-c3cccs3)n2Cc2ccco2)cc1
EC50 [19]: > 150 µM (inactive) | EC50 [20]: > 38 µM (not active)

O=C1/C(=C\c2cccnc2)CN(Cc2ccccc2)C/C1=C\c1cccnc1
AC50 [21]: 4.87 µM (active) | EC50 [14]: 1.29 µM (active) | EC50 [15]: 0.429 µM (active) | AC50 [5]: 2.06 µM (active)

C[C@H]1CCCCO[C@@H](CN(C)C(=O)Nc2ccc(C(F)(F)F)cc2)[C@@H](C)CN([C@@H](C)CO)C(=O)c2cc(NS(=O)(=O)c3cn(C)cn3)ccc2O1
AC50 [7]: 17.9 µM (active)

COc1ccc(CNS(=O)(=O)c2cc3c4c(c2)C(C)C(=O)N4CCC3)cc1 (stereo not given)
EC50 [11]: > 350 µM (not active) | EC50 [12]: > 350 µM (not active)

COC(=O)c1ccc(/C=C/c2c(-c3ccsc3)oc3ccc(N4CCOCC4)cc23)cc1
CC50 [4]: > 40 µM (active) | AC50 [5]: 3.33 µM (active)

CC(C)[C@H](NC(=O)c1ccco1)C(=O)OCc1cc(=O)n2c(n1)sc1ccccc12
EC50 [11]: > 350 µM (not active) | EC50 [12]: > 350 µM (not active)

CCOC(=O)c1cnc2ccc(C(=O)OC)cc2c1NCCc1ccc(OC)c(OC)c1
IC50 [3]: > 79 µM (inactive)

CCC(=O)Oc1ccc2c(C)cc(=O)oc2c1C
IC50 [3]: 74.2 µM (inactive)

COc1cc(C(=O)Nc2cc3c(cc2N2CCCCC2)n(C)c(=O)n3C)cc(OC)c1OC
IC50 [3]: 8.81 µM (active)

COc1ccc(C(=O)CSc2nncn2C)cc1
EC50 [11]: > 350 µM (not active) | EC50 [12]: > 350 µM (not active)

CCCC(=O)Nc1ccc2c(c1)C(=O)N(C)C[C@@H](OC)[C@H](C)CN(Cc1ccc(-c3ccccn3)cc1)[C@H](C)CO2
AC50 [7]: 28.7 µM (active)

Cc1noc(C)c1-c1nc(N(C)C)c2ccccc2n1
AC50 [10]: 15.8 µM (inconclusive) | AC50 [1]: 20 µM (inconclusive) | AC50 [6]: 25.1 µM (inconclusive)

Cc1cccc(NC(=O)CC23CC4CC(C2)CC(n2nnc(C)n2)(C4)C3)c1
AC50 [7]: 37.1 µM (active)

c1ccc(-c2ccccc2OCCCN2CCCCCC2)cc1
EC50 [19]: > 150 µM (inactive) | EC50 [20]: > 38 µM (not active)

COc1cc(/C=N/NC(=O)c2ccncc2)ccc1OCC(=O)Nc1ccc(C)c(C)c1
IC50 [3]: > 79 µM (inactive)

Nc1c(C(=O)NC2CCCC2)c2nc3ccccc3nc2n1N
IC50 [3]: > 79 µM (inactive)

CCN(CC)S(=O)(=O)c1cc(-c2nnc(-c3ccc(Br)cc3)o2)ccc1Cl
EC50 [14]: 28.1 µM (active) | EC50 [15]: 21.5 µM (active)

CCc1cc2c(=O)c(-c3ccc4c(c3)OCCO4)coc2cc1OS(C)(=O)=O
EC50 [14]: 14.6 µM (active) | EC50 [15]: 18 µM (active)
